From US9834518B2, “Compounds for inhibiting cell proliferation in EGFR-driven cancers” (ARIAD Pharmaceuticals, Inc., priority 2011, dated 2017) come the findings set out here.

In assay [1] the target is human EGFR (native sequence) (Homo sapiens, UniProt P00533). Kind of assay: Kinase inhibition, human EGFR (native sequence). The class given is biochemical. The following applies: 10 μM ATP; 10 pt curves, 3 μM top concentration (singlicates). In short, it runs like this: (§1)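 ATP was held at 10 μM while inhibition was measured across a 10-point series capped at 3 μM, single replicates.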
human EGFR (native sequence), sequence (P00533 25-1210): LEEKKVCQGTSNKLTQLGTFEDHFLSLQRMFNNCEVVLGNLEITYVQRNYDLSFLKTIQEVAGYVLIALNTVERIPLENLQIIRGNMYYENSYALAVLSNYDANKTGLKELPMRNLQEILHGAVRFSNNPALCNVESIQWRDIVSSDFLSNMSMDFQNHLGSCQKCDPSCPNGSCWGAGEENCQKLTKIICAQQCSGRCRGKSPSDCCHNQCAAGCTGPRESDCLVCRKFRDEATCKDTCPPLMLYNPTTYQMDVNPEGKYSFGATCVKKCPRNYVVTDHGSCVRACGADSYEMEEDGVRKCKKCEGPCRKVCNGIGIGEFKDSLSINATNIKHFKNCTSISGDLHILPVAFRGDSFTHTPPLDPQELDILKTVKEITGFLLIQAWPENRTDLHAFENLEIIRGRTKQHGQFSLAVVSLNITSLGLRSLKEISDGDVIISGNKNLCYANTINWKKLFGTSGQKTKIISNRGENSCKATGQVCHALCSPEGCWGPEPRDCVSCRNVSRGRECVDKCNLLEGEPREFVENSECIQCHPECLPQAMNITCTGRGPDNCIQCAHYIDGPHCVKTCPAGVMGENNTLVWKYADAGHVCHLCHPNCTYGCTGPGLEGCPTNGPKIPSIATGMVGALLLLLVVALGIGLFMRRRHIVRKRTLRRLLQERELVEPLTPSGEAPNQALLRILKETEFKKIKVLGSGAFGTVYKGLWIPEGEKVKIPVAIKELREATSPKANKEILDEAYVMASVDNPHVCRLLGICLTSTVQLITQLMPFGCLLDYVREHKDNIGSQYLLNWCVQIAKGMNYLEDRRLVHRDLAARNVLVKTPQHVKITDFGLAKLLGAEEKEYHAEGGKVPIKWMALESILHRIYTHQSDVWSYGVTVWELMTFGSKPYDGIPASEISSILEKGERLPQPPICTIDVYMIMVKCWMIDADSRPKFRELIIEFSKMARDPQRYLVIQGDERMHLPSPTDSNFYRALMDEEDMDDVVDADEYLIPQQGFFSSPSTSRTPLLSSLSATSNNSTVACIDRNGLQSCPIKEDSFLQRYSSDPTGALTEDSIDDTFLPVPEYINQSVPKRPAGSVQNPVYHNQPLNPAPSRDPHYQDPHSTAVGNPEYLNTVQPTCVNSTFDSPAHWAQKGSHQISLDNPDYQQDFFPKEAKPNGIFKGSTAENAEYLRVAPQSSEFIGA

Assay [2] deals with EGFR bearing the L858R mution (Homo sapiens, UniProt P00533, L858R). Description: Kinase inhibition, EGFR L858R. To be noted: 10 μM ATP; 10 pt curves, 3 μM top concentration (singlicates). The class given is biochemical. In short, it runs like this:
as §1

Assay [3] has as its target EGFR bearing the L858R/T790M double mutation (Homo sapiens, UniProt P00533, L858R/T790M). Kind of assay: Kinase inhibition, EGFR L858R/T790M. Format: biochemical. The following applies: 10 μM ATP; 10 pt curves, 3 μM top concentration (singlicates). In short, it runs like this: as §1
In a further assay the test system is BAF3 PARENTAL
Kind of assay: Cell proliferation (MTT), BAF3 parental. The class given is cell-based. To be noted: Mus musculus. On the procedure:
We also assessed the antiproliferative activity of compounds of Formula (I) against BaF3 cells expressing the target EGFR mutations or control (i.e., cell lines expressing wildtype EGFR). Assays were conducted using MTT.

Assay [4] has as its target BAF3 EGFR DEL T790M PURO POOL (Homo sapiens, UniProt P00533, DEL746-750/T790M, cells depend on it). Description: Cell proliferation (MTT), BAF3 EGFR DEL T790M. The class given is cell-based. Summed up:
(§2)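 MTT read-out; BaF3 lines carrying EGFR mutations vs wildtype-EGFR BaF3 control.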

Assay [5] concerns BAF3 EGFR L858R-T790M PURO POOL. Description: Cell proliferation (MTT), BAF3 EGFR L858R-T790M. The class given is cell-based. The following applies: Ba/F3 EGFR. In short, it runs like this: as §2

EGFR bearing the L858R/T790M double mutation, sequence (P00533 25-1210 T790M/L858R): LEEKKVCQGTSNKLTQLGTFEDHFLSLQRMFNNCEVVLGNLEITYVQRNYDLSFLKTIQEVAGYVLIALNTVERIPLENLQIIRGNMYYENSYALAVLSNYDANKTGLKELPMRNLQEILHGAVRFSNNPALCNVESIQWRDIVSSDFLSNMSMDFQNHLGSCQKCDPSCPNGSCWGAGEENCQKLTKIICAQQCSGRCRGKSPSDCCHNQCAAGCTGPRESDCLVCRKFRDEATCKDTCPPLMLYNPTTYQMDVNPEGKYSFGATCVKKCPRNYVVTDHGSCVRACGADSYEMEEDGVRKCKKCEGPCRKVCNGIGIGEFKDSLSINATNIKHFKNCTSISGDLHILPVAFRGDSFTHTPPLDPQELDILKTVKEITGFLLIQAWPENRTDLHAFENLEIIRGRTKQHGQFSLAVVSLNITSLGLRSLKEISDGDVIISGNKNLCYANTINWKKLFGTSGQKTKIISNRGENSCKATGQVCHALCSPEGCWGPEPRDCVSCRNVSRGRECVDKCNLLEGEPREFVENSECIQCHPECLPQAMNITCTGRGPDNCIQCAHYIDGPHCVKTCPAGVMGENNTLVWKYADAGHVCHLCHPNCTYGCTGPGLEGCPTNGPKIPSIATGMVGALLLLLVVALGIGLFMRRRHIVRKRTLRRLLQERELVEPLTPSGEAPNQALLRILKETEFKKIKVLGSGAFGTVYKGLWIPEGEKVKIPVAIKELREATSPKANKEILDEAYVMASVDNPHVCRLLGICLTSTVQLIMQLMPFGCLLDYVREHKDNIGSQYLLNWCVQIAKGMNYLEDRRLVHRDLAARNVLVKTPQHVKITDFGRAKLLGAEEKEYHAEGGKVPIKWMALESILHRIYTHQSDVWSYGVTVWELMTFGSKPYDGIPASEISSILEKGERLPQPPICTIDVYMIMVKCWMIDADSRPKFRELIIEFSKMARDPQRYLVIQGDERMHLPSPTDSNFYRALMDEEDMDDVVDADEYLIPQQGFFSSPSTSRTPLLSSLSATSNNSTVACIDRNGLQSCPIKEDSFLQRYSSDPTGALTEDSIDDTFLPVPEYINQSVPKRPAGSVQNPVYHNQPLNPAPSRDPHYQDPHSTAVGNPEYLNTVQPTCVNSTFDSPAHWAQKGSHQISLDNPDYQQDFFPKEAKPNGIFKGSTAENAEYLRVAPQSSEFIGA
BAF3 EGFR DEL T790M PURO POOL, sequence (P00533 with tags, fused parts or gaps DEL746-750/T790M): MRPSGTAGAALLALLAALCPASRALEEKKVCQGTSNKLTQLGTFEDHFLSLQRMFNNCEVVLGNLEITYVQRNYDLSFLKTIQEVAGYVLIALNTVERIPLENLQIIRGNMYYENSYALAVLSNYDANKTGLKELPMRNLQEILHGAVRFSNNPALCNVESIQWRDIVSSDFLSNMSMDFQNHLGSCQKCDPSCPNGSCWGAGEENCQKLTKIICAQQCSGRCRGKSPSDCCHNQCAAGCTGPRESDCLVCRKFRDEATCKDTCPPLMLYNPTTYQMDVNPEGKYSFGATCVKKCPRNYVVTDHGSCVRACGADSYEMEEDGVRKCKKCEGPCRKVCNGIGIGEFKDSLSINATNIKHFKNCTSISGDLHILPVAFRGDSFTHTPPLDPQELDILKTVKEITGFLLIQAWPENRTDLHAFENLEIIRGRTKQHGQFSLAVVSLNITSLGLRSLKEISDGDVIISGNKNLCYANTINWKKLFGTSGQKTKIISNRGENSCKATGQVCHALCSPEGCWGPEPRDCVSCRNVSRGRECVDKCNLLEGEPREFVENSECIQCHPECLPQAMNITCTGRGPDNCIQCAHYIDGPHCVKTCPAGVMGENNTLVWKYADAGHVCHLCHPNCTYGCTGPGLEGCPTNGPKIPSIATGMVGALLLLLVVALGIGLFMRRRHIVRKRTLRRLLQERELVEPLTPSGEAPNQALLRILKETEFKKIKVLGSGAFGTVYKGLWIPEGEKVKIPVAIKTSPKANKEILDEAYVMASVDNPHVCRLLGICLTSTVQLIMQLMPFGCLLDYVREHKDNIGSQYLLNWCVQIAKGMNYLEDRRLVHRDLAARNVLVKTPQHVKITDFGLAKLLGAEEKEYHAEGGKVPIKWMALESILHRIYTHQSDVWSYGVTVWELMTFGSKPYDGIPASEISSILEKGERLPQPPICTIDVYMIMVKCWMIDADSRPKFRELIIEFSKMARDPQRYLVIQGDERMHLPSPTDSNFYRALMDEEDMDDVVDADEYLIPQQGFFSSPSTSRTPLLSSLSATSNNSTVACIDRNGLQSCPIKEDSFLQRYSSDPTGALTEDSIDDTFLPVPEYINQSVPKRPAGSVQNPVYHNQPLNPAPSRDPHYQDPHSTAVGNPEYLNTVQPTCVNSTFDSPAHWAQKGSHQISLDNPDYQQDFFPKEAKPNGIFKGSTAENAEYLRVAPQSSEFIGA
EGFR bearing the L858R mution, sequence (P00533 25-1210 L858R): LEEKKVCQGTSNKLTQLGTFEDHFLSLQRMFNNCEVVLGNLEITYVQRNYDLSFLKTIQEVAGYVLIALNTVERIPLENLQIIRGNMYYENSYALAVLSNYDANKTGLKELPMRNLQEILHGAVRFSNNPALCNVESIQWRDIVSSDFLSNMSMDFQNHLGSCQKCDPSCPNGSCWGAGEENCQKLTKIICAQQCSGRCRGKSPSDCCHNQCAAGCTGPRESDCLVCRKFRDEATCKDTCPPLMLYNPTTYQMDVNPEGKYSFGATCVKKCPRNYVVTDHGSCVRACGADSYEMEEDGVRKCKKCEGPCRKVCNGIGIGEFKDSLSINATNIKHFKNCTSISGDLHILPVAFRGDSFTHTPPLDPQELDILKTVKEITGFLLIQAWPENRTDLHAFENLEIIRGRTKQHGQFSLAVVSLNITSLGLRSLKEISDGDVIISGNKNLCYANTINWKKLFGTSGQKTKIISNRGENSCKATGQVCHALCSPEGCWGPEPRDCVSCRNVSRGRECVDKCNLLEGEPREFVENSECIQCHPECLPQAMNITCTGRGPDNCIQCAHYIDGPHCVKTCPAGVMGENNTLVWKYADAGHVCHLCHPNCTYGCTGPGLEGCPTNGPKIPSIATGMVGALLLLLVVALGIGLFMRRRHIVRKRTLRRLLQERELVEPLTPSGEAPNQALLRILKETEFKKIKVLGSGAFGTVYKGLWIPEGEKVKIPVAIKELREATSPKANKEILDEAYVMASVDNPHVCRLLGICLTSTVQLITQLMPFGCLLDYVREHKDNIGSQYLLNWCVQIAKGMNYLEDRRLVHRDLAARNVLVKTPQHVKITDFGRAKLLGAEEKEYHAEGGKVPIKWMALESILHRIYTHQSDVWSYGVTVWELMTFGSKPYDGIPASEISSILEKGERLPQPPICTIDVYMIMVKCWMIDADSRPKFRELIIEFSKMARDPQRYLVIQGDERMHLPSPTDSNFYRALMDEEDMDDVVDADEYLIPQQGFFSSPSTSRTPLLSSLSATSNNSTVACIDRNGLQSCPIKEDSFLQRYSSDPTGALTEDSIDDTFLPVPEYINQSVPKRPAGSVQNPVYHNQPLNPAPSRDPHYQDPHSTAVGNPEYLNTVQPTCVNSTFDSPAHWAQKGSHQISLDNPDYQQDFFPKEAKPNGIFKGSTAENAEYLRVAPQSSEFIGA

As to `CC#CC(=O)Nc1ccc(OC)c(Nc2ncc(Cl)c(Nc3ccccc3P(C)(C)=O)n2)c1` [Example 6b, N-(3-((5-chloro-4-((2-(dimethylphosphoryl)phenyl)amino)pyrimidin-2-yl)amino)-4-methoxyphenyl)but-2-ynamide], the IC50 (as a rule, the concentration that inhibits the measured activity by half) in assay [1] is no less than 250 nM; in assay [2], 51 to 100 nM; in assay [3] it was no less than 250 nM; in the assay with BAF3 PARENTAL, no less than 250 nM; in assay [4], less than 51 nM; in assay [5], 51 to 100 nM.

For the compound `C=CC(=O)N(C(=O)C=C)c1ccc(OC)c(Nc2ncc(Cl)c(Nc3ccccc3P(C)(C)=O)n2)c1` [Example 26, N-acryloyl-N-(3-((5-chloro-4-((2-(dimethylphosphoryl)phenyl)amino)pyrimidin-2-yl)amino)-4-methoxyphenyl)acrylamide], the IC50 in assay [1] was no less than 250 nM; in assay [2] it was 101 to 250 nM; in assay [3], 101 to 250 nM; in the assay on BAF3 PARENTAL it was no less than 250 nM; in assay [4], less than 51 nM; in assay [5], 51 to 100 nM.

For `C=CC(=O)Nc1cc(Nc2ncc(Cl)c(Nc3ccccc3P(=O)(CC)CC)n2)c(OC)cc1F` [Example 48, N-(5-((5-chloro-4-((2-(diethylphosphoryl)phenyl)amino)pyrimidin-2-yl)amino)-2-fluoro-4-methoxyphenyl)acrylamide], the IC50 was less than 51 nM in assay [1]; less than 51 nM in assay [2]; less than 51 nM in assay [3]; no less than 250 nM in the assay with BAF3 PARENTAL; less than 51 nM in assay [4]; less than 51 nM in assay [5].

For the compound `C=CC(=O)Nc1cc(Nc2ncc(Cl)c(Nc3ccccc3P(C)(C)=O)n2)c(OC)cc1N(C)CCCN(C)C` [Example 34, N-(5-((5-chloro-4-((2-(dimethylphosphoryl)phenyl)amino)pyrimidin-2-yl)amino)-2-((3-(dimethylamino)propyl)(methyl)amino)-4-methoxyphenyl)acrylamide], the IC50 in assay [1] was no less than 250 nM; in assay [2], 101 to 250 nM; in assay [3] it was 51 to 100 nM; with BAF3 PARENTAL, no less than 250 nM; in assay [4] it was less than 51 nM; in assay [5], 101 to 250 nM.

On to `C=CC(=O)Nc1ccc(OC)c(Nc2ncc(Cl)c(Nc3ccccc3P(C)(C)=O)n2)c1` [Example 1, N-(3-((5-chloro-4-((2-(dimethylphosphoryl)phenyl)amino)pyrimidin-2-yl)amino)-4-methoxyphenyl)acrylamide], for which the half-inhibitory concentration (IC50) is 51 to 100 nM in assay [1]; less than 51 nM in assay [2]; less than 51 nM in assay [3]; no less than 250 nM in the assay on BAF3 PARENTAL; less than 51 nM in assay [4]; less than 51 nM in assay [5].

Regarding `C=CC(=O)Nc1cc(Nc2ncc(Cl)c(Nc3ccccc3P(C)(C)=O)n2)c(OC)cc1N(CC)CCN(CC)CC` [Example 61, N-(5-((5-chloro-4-((2-(dimethylphosphoryl)phenyl)amino)pyrimidin-2-yl)amino)-2-((2-(diethylamino)ethyl)(ethyl)amino)-4-methoxyphenyl)acrylamide], the IC50 in assay [1] was less than 51 nM; in assay [2], less than 51 nM; in assay [3] it was less than 51 nM; in the assay with BAF3 PARENTAL, no less than 250 nM; in assay [4], less than 51 nM; in assay [5] it was less than 51 nM.

Take `C=CC(=O)Nc1cc(Nc2ncc(Cl)c(Nc3ccccc3P(C)(C)=O)n2)c(OC)cc1OC(COC)CN(CC)CC` (stereo not drawn) [Example 27]: the IC50 was less than 51 nM in assay [1]; less than 51 nM in assay [2]; less than 51 nM in assay [3]; no less than 250 nM in the assay with BAF3 PARENTAL; less than 51 nM in assay [4]; less than 51 nM in assay [5].

Turning to `C=CC(=O)Nc1ccc(OC)c(Nc2ncc(C)c(Nc3ccccc3P(C)(C)=O)n2)c1` [Example 64, N-(3-((4-((2-(dimethylphosphoryl)phenyl)amino)-5-methylpyrimidin-2-yl)amino)-4-methoxyphenyl)acrylamide], the IC50 in assay [1] is less than 51 nM; in assay [2], less than 51 nM; in assay [3], less than 51 nM; in the assay on BAF3 PARENTAL, no less than 250 nM; in assay [4] it was less than 51 nM; in assay [5] it was less than 51 nM.

Consider `C=CC(=O)Nc1cc(Nc2ncc(Cl)c(Nc3ccccc3P(C)(C)=O)n2)c(OC)cc1O[C@@H](COC)CN(CC)CC` (stereo in doubt) [Example 29, rac-(R)—N-(5-((5-chloro-4-((2-(dimethylphosphoryl)phenyl)amino)pyrimidin-2-yl)amino)-2-((1-(diethylamino)-3-methoxypropan-2-yl)oxy)-4-methoxyphenyl)acrylamide], for which the IC50 was less than 51 nM in assay [1]; less than 51 nM in assay [2]; less than 51 nM in assay [3]; no less than 250 nM in the assay with BAF3 PARENTAL; less than 51 nM in assay [4]; less than 51 nM in assay [5].

Consider `C=CC(=O)Nc1cc(Nc2ncc(Cl)c(Nc3ccccc3P(=O)(CC)CC)n2)c(OC)cc1OCCN(C)C` [Example 52, N-(5-((5-chloro-4-((2-(diethylphosphoryl)phenyl)amino)pyrimidin-2-yl)amino)-2-(2-(dimethylamino)ethoxy)-4-methoxyphenyl)acrylamide], for which the IC50 in assay [1] was less than 51 nM; in assay [2] it was less than 51 nM; in assay [3], less than 51 nM; in the assay on BAF3 PARENTAL, no less than 250 nM; in assay [4] it was less than 51 nM; in assay [5], less than 51 nM.

`C=CC(=O)Nc1cc(Nc2ncc(Cl)c(Nc3ccccc3P(C)(C)=O)n2)c(OC)cc1CCCN(CC)CC` [Example 40, N-(5-((5-chloro-4-((2-(dimethylphosphoryl)phenyl)amino)pyrimidin-2-yl)amino)-2-(3-(diethylamino)propyl)-4-methoxyphenyl)acrylamide]: the IC50 in assay [1] is less than 51 nM; in assay [2] it was less than 51 nM; in assay [3], less than 51 nM; in the assay with BAF3 PARENTAL, no less than 250 nM; in assay [4] it was less than 51 nM; in assay [5], no less than 250 nM.

As to `C=CC(=O)Nc1ccc(OCC)c(Nc2ncc(Cl)c(Nc3ccccc3P(C)(C)=O)n2)c1` [Example 47, N-(3-((5-chloro-4-((2-(dimethylphosphoryl)phenyl)amino)pyrimidin-2-yl)amino)-4-ethoxyphenyl)acrylamide], the IC50 in assay [1] was less than 51 nM; in assay [2] it was less than 51 nM; in assay [3], less than 51 nM; in the assay on BAF3 PARENTAL, no less than 250 nM; in assay [4] it was less than 51 nM; in assay [5] it was less than 51 nM.

For the compound `C=C(CN(C(C)C)C(C)C)C(=O)Nc1ccc(OC)c(Nc2ncc(Cl)c(Nc3ccccc3P(C)(C)=O)n2)c1` [Example 35, N-(3-((5-chloro-4-((2-(dimethylphosphoryl)phenyl)amino)pyrimidin-2-yl)amino)-4-methoxyphenyl)-2-((diisopropylamino)methyl)acrylamide], the IC50 in assay [1] is less than 51 nM; in assay [2], less than 51 nM; in assay [3], less than 51 nM; with BAF3 PARENTAL, no less than 250 nM; in assay [4], less than 51 nM; in assay [5] it was less than 51 nM.

Consider `C=CC(=O)Nc1ccc(OC)c(Nc2ncc(CC)c(Nc3ccccc3P(C)(C)=O)n2)c1` [Example 63, N-(3-((4-((2-(dimethylphosphoryl)phenyl)amino)-5-ethylpyrimidin-2-yl)amino)-4-methoxyphenyl)acrylamide], for which the IC50 is less than 51 nM in assay [1]; less than 51 nM in assay [2]; less than 51 nM in assay [3]; no less than 250 nM with BAF3 PARENTAL; less than 51 nM in assay [4]; less than 51 nM in assay [5].
